Legend:
pHER-2 = test: Multiplexed proximity assay, per-cell RTK activation in cell lines: pHER-2; assay type: cell-based; conditions: for Per Cell-RTK Activation (RFU/cell) pHER2: stimulation with the ligand, calculated from number of cells required to detect EC20 (12000 RFU)
Procedure: SKBR3, MDA-MB-468, T47D, and BT474 cell lines were obtained from ATCC. Cells were grown in the following growth media in 100 mm tissue culture plates at 37° C. in 5% CO2: SKBR3—MacCoy's 5A medium with 10% FBS; MDA-MB-468—DMEM, 10% FBS; BT474—DMEM, 10% FBS; T47D—RPMI 1640, 10% FBS, 0.2 U/ml bovine insulin. Cells were harvested at 70-80% confluency with gentle detachment process (trypsin treatment+subsequent inactivation) and were subsequently counted and washed with 1×PBS. […] Subsequently, stimulated cells were washed with 1×PBS and then were lysed and kept on ice for 30 min.
Capture antibodies were diluted in 1×PBS with detergent. A contact microarray printer (Genetix) was utilized to print on 16 pad nitrocellulose FAST slides (Whatman). The spot diameter was approximately 175 μm and printed slides were kept in a desiccated chamber at 4° C.
Slides were incubated with blocking buffer for 1 hr and then washed 3× with TBST buffer. Cell lysates were then added onto each pad for overnight incubation at room temperature (RT). Upon the completion of the primary binding, lysates were aspirated and then each pad was washed several times with TBST. Then, secondary detector antibodies (conjugated with GO or HRP) were added to each pad for 2 hr at RT. Unbound secondary detector antibodies were removed by washing with TBST, and signal amplification buffer containing glucose and biotinylated tyramide was added to each pad for 15 min. After removing excess biotinylated tyramide, Alexa-647 conjugated strepavidin was added for the signal detection.
Quantitation was performed using Perkin Elmer ScanArray Express software and the data obtained was corrected for local and global background intensities. A GenePixArray List (GAL) file was used to provide descriptive name and identifier information and was incorporated into the image analysis output file. Signals from triplicate spots were averaged and data were normalized to correct for pad to pad variability. A nonlinear regression model was used for the quantitation of cell-equivalent amount for corresponding relative fluorescence unit (RFU) values. The data were fit to a five parameter Hill equation to generate the standard curves. Each curve was validated against known controls. A known number of cells was predicted for the appropriate dilution, corresponding to the curve with the highest slope at the intensity of the unknown sample.
Analytical specificity of the collaborative immunoassay format described herein was >99.99% based on a comparative study performed on multiple cell lines with various RTK levels. […] The RTK activation profile for T47D cells, which express some level of ErbB2 and ErbB3 but an extremely low amount of ErbB1, is shown in FIG. 22. The number of cells required to detect EC20 (12000 RFU) pHER-1 or pHER-2 were used to calculate per-cell RTK activation (RFU/cell) as shown in Table 43. When MB468 cells expressing an extremely low amount of HER-2 were used, having ˜1000 cells per reaction pad was not sufficient to achieve EC20, and this type of low or non-detectable signal in other cell lines was indicated as “ND” in Table 43. […] This collaborative immunoassay format ensures ultra-specificity while maintaining its sub-single cell level (10^4 to 10^5) molecular level assay sensitivity.

Progesterone Receptor = test: Tumor cell pathway profile: Progesterone Receptor; assay type: in vivo, human; conditions: tumor cells on re-biopsy
Procedure: (§1) The incubation was for 2 hours at room temperature. • 5) Alternatively, the detection step utilized a biotin-conjugate of the monoclonal antibody recognizing phosphorylated EGFR. In these instances, after six washes an additional sequential step of incubation with streptavidin-HRP for 1 hour was included. • 6) Alternatively, the detection step utilized an oligonucleotide-mediated glucose oxidase (GO) conjugate of the anti-EGFR antibody.
(§2) The exemplary patient profiles shown below in Tables 4-22 illustrate how an analysis of the pathways active in circulating tumor cells (CTCs) from blood or cancer cells obtained from a needle biopsy can be used to help physicians decide upon an effective course of treatment for a breast tumor, e.g., neoadjuvant treatment prior to surgery to reduce the size of the breast tumor or treatment in patients with locally recurrent or metastatic breast cancer. In brief, the activation levels of different components of the ErbB and nuclear hormone receptor pathways in CTCs or biopsy-derived cancer cells can be determined in the presence or absence of different combinations of test therapeutic agents.

Akt = test: Tumor cell pathway profile: Akt; assay type: in vivo, human; conditions: tumor cells on re-biopsy
Procedure: as §1
(§3) In brief, the activation levels of different components of the ErbB and nuclear hormone receptor pathways in CTCs or biopsy-derived cancer cells can be determined in the presence or absence of different combinations of test therapeutic agents.

P70S6K = test: Tumor cell pathway profile: P70S6K; assay type: in vivo, human; conditions: tumor cells on re-biopsy
Procedure: as §1, §3

ErbB2 = target: T1, ErbB2 (Homo sapiens, UniProt P04626); test: Tumor cell pathway profile: ErbB2; assay type: in vivo; conditions: tumor cells on re-biopsy
T1 construct: pathways active in circulating tumor cells (CTCs) from blood or cancer cells obtained from a needle biopsy; endogenous in cells; host or cells: patient's circulating tumour cells or biopsy-derived breast cancer cells
Procedure: as §1, §3

TOPO II = test: Tumor cell pathway profile: TOPO II; assay type: in vivo, human; conditions: Patient 4001 (ER+/PR+/ErbB2−), tumor cells on re-biopsy
Procedure: as §1, §2

Erk = test: Tumor cell pathway profile: Erk; assay type: in vivo, human; conditions: tumor cells on re-biopsy
Procedure: as §1, §3

breast tumor = test: Response of breast cancer patient to therapy selected from pathway profile; assay type: in vivo, human
Description: as §2
In brief, the activation levels of different components of signal transduction pathways such as the ErbB receptor pathways in CTCs or biopsy-derived cancer cells can be determined in the presence or absence of different combinations of test therapeutic agents.

Rsk = test: Tumor cell pathway profile: Rsk; assay type: in vivo, human; conditions: tumor cells on re-biopsy
Procedure: as §1, §3

PI3K = test: Tumor cell pathway profile: PI3K; assay type: in vivo, human; conditions: tumor cells on re-biopsy
Procedure: as §1, §3

ErbB3 = test: Tumor cell pathway profile: ErbB3; assay type: in vivo, human; conditions: tumor cells on re-biopsy
Procedure: as §1, §2

PTEN = test: Tumor cell pathway profile: PTEN; assay type: in vivo, human; conditions: Patient 4001 (ER+/PR+/ErbB2−), tumor cells on re-biopsy
Procedure: as §1, §2

Ki67 = test: Tumor cell pathway profile: Ki67; assay type: in vivo, human; conditions: tumor cells on re-biopsy
Procedure: as §1, §2

Shc = test: Tumor cell pathway profile: Shc; assay type: in vivo, human; conditions: tumor cells on re-biopsy
Procedure: as §1, §2

IGF-1R = test: Tumor cell pathway profile: IGF-1R; assay type: in vivo, human; conditions: tumor cells on re-biopsy
Procedure: as §1, §3

ErbB4 = target: T2, ErbB4 (Homo sapiens, UniProt Q15303); test: Tumor cell pathway profile: ErbB4; assay type: in vivo; conditions: tumor cells on re-biopsy
T2 construct: pathways active in circulating tumor cells (CTCs) from blood or cancer cells obtained from a needle biopsy; endogenous in cells; host or cells: patient's circulating tumour cells or biopsy-derived breast cancer cells
Procedure: as §1, §3

ErbB1 = target: T3, ErbB1 (Homo sapiens, UniProt P00533); test: Tumor cell pathway profile: ErbB1; assay type: in vivo; conditions: Patient 4008 (High AIB1; ER+/PR+/ErbB2−), tumor cells on re-biopsy
T3 construct: pathways active in circulating tumor cells (CTCs) from blood or cancer cells obtained from a needle biopsy; endogenous in cells; host or cells: patient's circulating tumour cells or biopsy-derived breast cancer cells
Procedure: as §1, §3

ER:AIB1 Complex = target: T4, ER:AIB1 Complex (Homo sapiens, UniProt P03372); test: Tumor cell pathway profile: ER:AIB1 complex; assay type: in vivo; conditions: Patient 4008 (High AIB1; ER+/PR+/ErbB2−), tumor cells on re-biopsy
T4 construct: pathways active in circulating tumor cells (CTCs) from blood or cancer cells obtained from a needle biopsy; endogenous in cells; host or cells: patient's circulating tumour cells or biopsy-derived breast cancer cells
Procedure: as §1, §3

ER:N-CoR Complex = target: T5, ER:N-CoR Complex (Homo sapiens, UniProt P03372); test: Tumor cell pathway profile: ER:N-CoR complex; assay type: in vivo; conditions: Patient 4008 (High AIB1; ER+/PR+/ErbB2−), tumor cells on re-biopsy
T5 construct: pathways active in circulating tumor cells (CTCs) from blood or cancer cells obtained from a needle biopsy; endogenous in cells; host or cells: patient's circulating tumour cells or biopsy-derived breast cancer cells
Procedure: as §1, §3

ER = target: T6, ER (Homo sapiens, UniProt P03372); test: Tumor cell (CTC/biopsy) pathway profile on antibody array: ER expression; assay type: in vivo; conditions: Patient 4008 (High AIB1; ER+/PR+/ErbB2−), tumor cells on re-biopsy
T6 construct: pathways active in circulating tumor cells (CTCs) from blood or cancer cells obtained from a needle biopsy; endogenous in cells; host or cells: patient's circulating tumour cells or biopsy-derived breast cancer cells
Procedure: as §1, §3

ER (Ser 118) = target: T7, ER (Ser 118) (Homo sapiens, UniProt P03372); test: Tumor cell pathway profile: ER (Ser 118) phosphorylation; assay type: in vivo; conditions: Patient 4008 (High AIB1; ER+/PR+/ErbB2−), tumor cells on re-biopsy
T7 construct: pathways active in circulating tumor cells (CTCs) from blood or cancer cells obtained from a needle biopsy; endogenous in cells; host or cells: patient's circulating tumour cells or biopsy-derived breast cancer cells
Procedure: as §1, §3

ER (Ser 167) = target: T8, ER (Ser 167) (Homo sapiens, UniProt P03372); test: Tumor cell pathway profile: ER (Ser 167) phosphorylation; assay type: in vivo; conditions: Patient 4008 (High AIB1; ER+/PR+/ErbB2−), tumor cells on re-biopsy
T8 construct: pathways active in circulating tumor cells (CTCs) from blood or cancer cells obtained from a needle biopsy; endogenous in cells; host or cells: patient's circulating tumour cells or biopsy-derived breast cancer cells
Procedure: as §1, §3

pHER-1 = target: T9, pHER-1 (Homo sapiens, UniProt P00533); test: Multiplexed proximity assay, per-cell RTK activation in cell lines: pHER-1; assay type: cell-based; conditions: stimulation with the ligand, calculated from number of cells required to detect EC20 (12000 RFU)
T9 construct: host or cells: SKBR3, MDA-MB-468, T47D, BT474
Procedure: Slides were incubated with blocking buffer for 1 hr and then washed 3× with TBST buffer. Cell lysates were then added onto each pad for overnight incubation at room temperature (RT). Upon the completion of the primary binding, lysates were aspirated and then each pad was washed several times with TBST. Then, secondary detector antibodies (conjugated with GO or HRP) were added to each pad for 2 hr at RT. […]
Quantitation was performed using Perkin Elmer ScanArray Express software and the data obtained was corrected for local and global background intensities. […] A nonlinear regression model was used for the quantitation of cell-equivalent amount for corresponding relative fluorescence unit (RFU) values. […]

p95ErbB2 = conditions: T47D cells, FIG. 17
Procedure: The slide is incubated for two hours at room temperature. • 4) After six washes with TBS-Tween, 80 μl of detection antibodies for the proximity assay diluted in TBS-Tween/2% BSA/1% FBS is added to the slides. The detection antibodies used are: (1) an anti-ErbB2 antibody specific for the intracellular domain of ErbB2 that is directly conjugated to glucose oxidase (GO); and (2) a monoclonal antibody recognizing phosphorylated ErbB2 that is directly conjugated to horseradish peroxidase (HRP). The incubation is for 2 hours at room temperature. • 5) For signal amplification, 80 μl of biotin-tyramide at 5 μg/ml is added and reacted for 15 minutes along with 50 mM glucose. The slide is washed six times with TBS-Tween, twice with 20% DMSO/TBS-Tween, and once with TBS. […] The slide is then washed twice, dried for 5 minutes, and scanned on a microarray scanner (Perkin-Elmer, Inc.). • 6) As a non-limiting example, slide 1 can report on total ErbB2 activation while slide 2 can report on truncated ErbB2 activation.
The slide is incubated for two hours at room temperature. • 4) After six washes with TBS-Tween, 80 μl of detection antibodies for the assay diluted in TBS-Tween/2% BSA/1% FBS is added to the slides. The detection antibody used is an anti-ErbB2 antibody specific for the intracellular domain of ErbB2 that is directly conjugated to HRP. […]

[1] = Patient 4008 (High AIB1; ER+/PR+/ErbB2−)

T1 sequence (P04626 23-1255): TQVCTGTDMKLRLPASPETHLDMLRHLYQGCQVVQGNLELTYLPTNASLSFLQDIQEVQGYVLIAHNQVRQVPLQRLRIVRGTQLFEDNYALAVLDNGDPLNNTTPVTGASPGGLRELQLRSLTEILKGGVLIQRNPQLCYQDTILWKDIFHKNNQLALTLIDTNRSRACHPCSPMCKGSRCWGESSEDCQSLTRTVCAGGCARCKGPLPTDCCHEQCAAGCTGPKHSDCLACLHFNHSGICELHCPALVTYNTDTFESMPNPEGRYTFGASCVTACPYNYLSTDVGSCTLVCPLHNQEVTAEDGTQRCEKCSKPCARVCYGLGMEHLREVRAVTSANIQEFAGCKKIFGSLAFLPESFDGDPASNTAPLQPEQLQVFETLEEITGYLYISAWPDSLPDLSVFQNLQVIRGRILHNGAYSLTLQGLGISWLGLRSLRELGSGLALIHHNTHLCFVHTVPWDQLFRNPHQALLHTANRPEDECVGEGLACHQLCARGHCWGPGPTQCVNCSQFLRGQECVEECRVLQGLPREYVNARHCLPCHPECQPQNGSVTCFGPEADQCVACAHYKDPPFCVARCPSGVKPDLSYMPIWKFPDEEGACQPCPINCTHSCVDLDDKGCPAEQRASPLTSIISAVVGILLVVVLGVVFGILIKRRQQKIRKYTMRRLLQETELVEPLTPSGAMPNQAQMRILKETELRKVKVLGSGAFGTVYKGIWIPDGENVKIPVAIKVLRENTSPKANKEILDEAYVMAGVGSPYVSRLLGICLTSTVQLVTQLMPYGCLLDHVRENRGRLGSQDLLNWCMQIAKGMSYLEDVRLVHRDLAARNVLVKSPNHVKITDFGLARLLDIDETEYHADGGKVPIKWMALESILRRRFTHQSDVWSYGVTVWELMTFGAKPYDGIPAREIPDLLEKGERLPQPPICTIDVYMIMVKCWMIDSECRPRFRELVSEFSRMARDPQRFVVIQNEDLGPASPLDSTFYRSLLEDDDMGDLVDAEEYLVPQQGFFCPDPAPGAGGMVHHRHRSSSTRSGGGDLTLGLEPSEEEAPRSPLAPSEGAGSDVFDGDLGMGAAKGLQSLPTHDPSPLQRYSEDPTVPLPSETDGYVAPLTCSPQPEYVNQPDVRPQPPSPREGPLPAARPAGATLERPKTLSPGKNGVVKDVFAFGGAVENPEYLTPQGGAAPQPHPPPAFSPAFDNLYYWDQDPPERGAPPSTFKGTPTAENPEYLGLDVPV
T2 sequence (Q15303 26-1308): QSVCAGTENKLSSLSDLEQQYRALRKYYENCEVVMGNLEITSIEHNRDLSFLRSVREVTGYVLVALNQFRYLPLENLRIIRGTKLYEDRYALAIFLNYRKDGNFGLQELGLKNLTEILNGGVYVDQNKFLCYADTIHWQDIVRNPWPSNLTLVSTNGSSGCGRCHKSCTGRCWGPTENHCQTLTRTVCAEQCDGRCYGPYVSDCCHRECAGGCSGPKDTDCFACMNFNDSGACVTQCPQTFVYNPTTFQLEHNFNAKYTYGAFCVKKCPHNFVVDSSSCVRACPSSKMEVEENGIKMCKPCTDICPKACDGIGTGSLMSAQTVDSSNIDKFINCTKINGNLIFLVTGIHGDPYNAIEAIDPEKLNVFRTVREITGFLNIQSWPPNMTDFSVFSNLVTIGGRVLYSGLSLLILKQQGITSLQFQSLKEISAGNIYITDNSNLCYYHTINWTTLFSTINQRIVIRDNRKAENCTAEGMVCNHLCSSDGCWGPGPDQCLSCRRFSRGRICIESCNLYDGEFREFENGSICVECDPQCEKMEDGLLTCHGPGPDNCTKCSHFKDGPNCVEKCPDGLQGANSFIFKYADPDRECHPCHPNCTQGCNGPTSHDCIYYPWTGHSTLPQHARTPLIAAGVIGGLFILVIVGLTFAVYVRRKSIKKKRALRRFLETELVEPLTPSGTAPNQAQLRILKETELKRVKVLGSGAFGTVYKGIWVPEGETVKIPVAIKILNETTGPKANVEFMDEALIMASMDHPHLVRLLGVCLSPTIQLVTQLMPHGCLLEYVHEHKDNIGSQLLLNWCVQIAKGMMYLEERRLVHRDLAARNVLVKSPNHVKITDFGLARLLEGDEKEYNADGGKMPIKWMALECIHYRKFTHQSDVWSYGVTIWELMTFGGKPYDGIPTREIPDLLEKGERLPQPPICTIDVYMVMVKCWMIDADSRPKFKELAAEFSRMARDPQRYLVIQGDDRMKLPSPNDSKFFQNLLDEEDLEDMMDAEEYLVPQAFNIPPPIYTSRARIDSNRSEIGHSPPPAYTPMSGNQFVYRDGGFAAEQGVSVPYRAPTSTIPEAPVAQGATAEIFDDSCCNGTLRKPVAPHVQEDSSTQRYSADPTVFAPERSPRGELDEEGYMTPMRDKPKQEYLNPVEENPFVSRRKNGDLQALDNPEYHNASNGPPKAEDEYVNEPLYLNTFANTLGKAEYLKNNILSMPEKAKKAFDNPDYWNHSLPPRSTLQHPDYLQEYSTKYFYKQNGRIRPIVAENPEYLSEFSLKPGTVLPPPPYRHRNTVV
T8 sequence (P03372 whole entry): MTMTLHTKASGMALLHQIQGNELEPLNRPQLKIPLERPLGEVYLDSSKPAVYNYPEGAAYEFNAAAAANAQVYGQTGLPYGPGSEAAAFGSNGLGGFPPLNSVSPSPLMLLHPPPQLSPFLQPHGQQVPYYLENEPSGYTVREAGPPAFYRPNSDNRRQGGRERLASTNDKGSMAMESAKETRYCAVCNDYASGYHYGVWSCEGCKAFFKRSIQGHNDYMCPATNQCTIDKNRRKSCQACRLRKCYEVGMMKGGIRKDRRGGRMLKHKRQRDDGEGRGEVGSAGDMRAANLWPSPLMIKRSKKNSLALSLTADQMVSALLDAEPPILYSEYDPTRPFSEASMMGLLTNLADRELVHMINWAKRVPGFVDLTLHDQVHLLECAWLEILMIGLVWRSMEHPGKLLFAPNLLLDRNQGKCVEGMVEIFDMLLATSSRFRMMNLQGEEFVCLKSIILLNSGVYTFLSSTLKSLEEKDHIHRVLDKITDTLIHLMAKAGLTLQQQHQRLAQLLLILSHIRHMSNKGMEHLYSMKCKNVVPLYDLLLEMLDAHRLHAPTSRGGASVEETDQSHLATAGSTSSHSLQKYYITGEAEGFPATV
T6 sequence (P03372 whole entry): as above
T4 sequence (P03372 whole entry, one chain of several): as the sequence (P03372 whole entry) above
T7 sequence (P03372 whole entry): as above

Compound: EGF: epidermal growth factor, stimulatory growth factor
- Per Cell-RTK Activation (RFU/cell) pHER2 (pHER-2; BT 474 cells): 1200 RFU/cell
- pHER-2 (pHER-2; MDA MB 468 cells stimulated with EGF): do not show any detectable
- Per Cell-RTK Activation (RFU/cell) pHER2 (pHER-2; SKBR3 cells): 1334 RFU/cell
- Per Cell-RTK Activation (RFU/cell) pHER2 (pHER-2; T47D cells): 80 RFU/cell

Compound: CC/C(=C(\c1ccccc1)c1ccc(OCCN(C)C)cc1)c1ccccc1 [Tamoxifen, tamoxifen]
- Progesterone Receptor: Treatment with Tamoxifen (Progesterone Receptor; Patient 4001 (ER+/PR+/ErbB2−)): Medium
- Akt: Treatment with Tamoxifen (Akt; Patient 4001 (ER+/PR+/ErbB2−)): Weak
- P70S6K: Treatment with Tamoxifen (P70S6K; Patient 4001 (ER+/PR+/ErbB2−)): Weak
- ErbB2: Treatment with Tamoxifen (ErbB2; Patient 4001 (ER+/PR+/ErbB2−)): Weak
- TOPO II: Treatment with Tamoxifen (TOPO II): Medium
- Erk: Treatment with Tamoxifen (Erk; Patient 4001 (ER+/PR+/ErbB2−)): Weak
- Patient response to treatment (breast tumor; Patient 4001 (ER+/PR+/ErbB2−), premenopausal, node negative): responded
- Rsk: Treatment with Tamoxifen (Rsk; Patient 4001 (ER+/PR+/ErbB2−)): Weak
- PI3K: Treatment with Tamoxifen (PI3K; Patient 4001 (ER+/PR+/ErbB2−)): Weak
- ErbB3: Treatment with Tamoxifen (ErbB3; Patient 4001 (ER+/PR+/ErbB2−)): Weak
- PTEN: Treatment with Tamoxifen (PTEN): Medium
- Ki67: Treatment with Tamoxifen (Ki67; Patient 4001 (ER+/PR+/ErbB2−)): Weak
- Shc: Treatment with Tamoxifen (Shc; Patient 4001 (ER+/PR+/ErbB2−)): Weak
- IGF-1R: Treatment with Tamoxifen (IGF-1R; Patient 4001 (ER+/PR+/ErbB2−)): Weak
- ErbB4: Treatment with Tamoxifen (ErbB4; Patient 4001 (ER+/PR+/ErbB2−)): Weak

Compound: C[C@]12CC[C@@H]3c4ccc(O)cc4C[C@@H](CCCCCCCCC[S+]([O-])CCCC(F)(F)C(F)(F)F)[C@H]3[C@@H]1CC[C@@H]2O (some centres unmarked) [Fulvestrant, fulvestrant]
- Progesterone Receptor: Treatment with Fulvestrant (Progesterone Receptor; [1]): Low
- ErbB1: Treatment with Fulvestrant (ErbB1): Weak
- Akt: Treatment with Fulvestrant (Akt; [1]): Weak
- ER: AIB1 Complex: Treatment with Fulvestrant (ER:AIB1 Complex): Weak
- P70S6K: Treatment with Fulvestrant (P70S6K; [1]): Weak
- ErbB2: Treatment with Fulvestrant (ErbB2; [1]): Weak
- Erk: Treatment with Fulvestrant (Erk; [1]): Weak
- Patient response to treatment (breast tumor; [1]): responded
- Rsk: Treatment with Fulvestrant (Rsk; [1]): Weak
- PI3K: Treatment with Fulvestrant (PI3K; [1]): Weak
- ErbB3: Treatment with Fulvestrant (ErbB3; [1]): Weak
- ER: N-CoR Complex: Treatment with Fulvestrant (ER:N-CoR Complex): Weak
- ER: Treatment with Fulvestrant (ER): Low
- Ki67: Treatment with Fulvestrant (Ki67; [1]): Weak
- Shc: Treatment with Fulvestrant (Shc; [1]): Weak
- ER (Ser 118): Treatment with Fulvestrant (ER (Ser 118)): Weak
- ER (Ser 167): Treatment with Fulvestrant (ER (Ser 167)): Weak
- IGF-1R: Treatment with Fulvestrant (IGF-1R; [1]): Weak
- ErbB4: Treatment with Fulvestrant (ErbB4; [1]): Weak

Compound: heregulin
- Per Cell-RTK Activation (RFU/cell) pHER1 (pHER-1; MD AMB 468 cells): 4000 RFU/cell
- Per Cell-RTK Activation (RFU/cell) pHER1 (pHER-1; SKBR3 cells): 105 RFU/cell
- p95ErbB2 phosphorylation (p95ErbB2): increased
- Per Cell-RTK Activation (RFU/cell) pHER2 (pHER-2; BT 474 cells): 1200 RFU/cell
- Per Cell-RTK Activation (RFU/cell) pHER2 (pHER-2; SKBR3 cells): 353 RFU/cell
- Per Cell-RTK Activation (RFU/cell) pHER2 (pHER-2; T47D cells): 165 RFU/cell
